Values joined by “and” are separate entries in the source; they are usually repeats but may differ in a detail not shown here. Equal entries are not always repeated. Where two headings read alike, the source gives them in different places. Peptide text beside a SMILES is read from it. * marks the point of attachment. Cbz = O=C(OCc1ccccc1)*
Legend:
BACE1 [1] = target: T1, BACE1 (Homo sapiens, UniProt P56817); set-up: method as in ChEMBL23 [24]; conditions: known BACE1 inhibitors of Training/Test sets; ref ChEMBL23 [24]; cited from earlier work
T1 construct: purchased Sigma-Aldrich Co. LLC; CS0010
T1 sequence (P56817 46-501): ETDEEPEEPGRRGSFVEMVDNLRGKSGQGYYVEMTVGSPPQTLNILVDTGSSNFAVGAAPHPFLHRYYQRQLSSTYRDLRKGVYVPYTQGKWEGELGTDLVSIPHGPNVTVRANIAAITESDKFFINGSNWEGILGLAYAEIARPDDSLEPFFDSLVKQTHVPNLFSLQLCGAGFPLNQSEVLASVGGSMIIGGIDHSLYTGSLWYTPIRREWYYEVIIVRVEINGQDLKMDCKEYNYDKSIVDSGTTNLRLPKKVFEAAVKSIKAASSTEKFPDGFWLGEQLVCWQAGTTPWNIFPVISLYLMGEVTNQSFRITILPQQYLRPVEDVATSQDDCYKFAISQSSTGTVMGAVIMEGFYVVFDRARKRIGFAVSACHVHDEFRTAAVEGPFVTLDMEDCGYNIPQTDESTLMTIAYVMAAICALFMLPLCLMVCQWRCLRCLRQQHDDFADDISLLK

BACE1 [2] = target: T1, BACE1; experiment: Cell-free FRET assay for BACE1 activity (β-Secretase (BACE1) Activity Detection Kit CS0010); type: biochemical; conditions: for Average percent inhibition at 10 μM: Table S2, thirty-four in vitro tested compounds, mean of at least three independent experiments in triplicate
[3] = 10 μM, mean of at least three independent experiments performed in triplicate, read-out: Average Percent Inhibition at 10 μM

Row | Compound | IC50 (BACE1 [1]) | also measured
1 | CC(C)c1ccc(CO[C@H]2CN(S(=O)(=O)c3ccccc3)C[C@@H]2Nc2nc3cc(F)ccc3[nH]2)cc1 [ChEMBL3746896] | 0.48 µM | 
2 | Cc1ccc(S(=O)(=O)Oc2ccc3oc4c(CO)ccc(NCCN(C)C)c4c(=O)c3c2)cc1 [Compound 19] |  | inhibition at 10 µM (BACE1 [2]; [3]): 21.2%
3 | NC1=NC2(CO1)c1cc(-c3cc(Cl)cnc3F)ccc1OC1(CCC1)C21COC1 (stereo not shown) [ChEMBL3703272] | 0.827 µM | 
4 | NC1=NC(c2ccncc2)(c2cccc(-c3cncc(F)c3)c2)c2cccc(F)c21 (stereo not shown) [ChEMBL2177905] | 0.137 µM | 
5 | NC1=NC(c2ccccc2)(C2CCCCC2)C(=O)N1CCCCCC(=O)O (stereo not shown) [ChEMBL607527] | 0.95 µM | 
6 | CC(=O)c1cccc(OCC(O)CN2CCN(c3ccc(C)cc3)CC2)c1 (stereo not shown) [NSC147852] |  | Average percent inhibition at 10 μM (BACE1 [2]; 10 μM): 10.6%
7 | CCO[C@H]1CC[C@]2(CC1)Cc1ccc(-c3cccc(OC)c3)cc1C21N=C(N)N(C)C1=O (stereo partly shown) [ChEMBL3978126] | 0.015 µM | 
8 | CC(=O)c1ccccc1OCC(O)CN1CCN(c2ccccc2)CC1 (stereo not shown) [NSC147850] |  | Average percent inhibition at 10 μM (BACE1 [2]; 10 μM): 8.7%
9 | NC1=N[C@@]2(CO1)c1cc(-c3cccnc3F)ccc1Oc1c2cc(N2CCOCC2)nc1F [ChEMBL3394224] | 0.0003 µM | 
10 | CC1(C)N=C(N)N=C(N)N1c1cccc(OCCCOc2ccc(NC(=O)CBr)cc2)c1 [Compound 22] |  | inhibition at 10 µM (BACE1 [2]; [3]): 18.1%
11 | NC1=N[C@@]2(c3cc(-c4cccnc4F)ccc3Oc3c(F)cc(N4CCOCC4)cc32)c2nccn21 [ChEMBL3677276] | 0.0007 µM | 
12 | CC(C)C[C@H](NC(=O)[C@@H](NC(=O)[C@@H](N)CNC(=O)c1nn[nH]n1)C(C)C)C(=O)N[C@@H](Cc1ccccc1)[C@@H](O)C(=O)Nc1cc(-c2nn[nH]n2)cc(-c2nn[nH]n2)c1 [ChEMBL439521] | 0.0012 µM | 
13 | CC(=O)c1ccc(OCC(O)CN2CCN(c3ccccc3)CC2)c(C)c1 (stereo not shown) [NSC147841] |  | Average percent inhibition at 10 μM (BACE1 [2]; 10 μM): 13.0%
14 | COc1cc(F)c2c(c1)C1(N=C(N)n3ccnc31)c1cc(-c3cccnc3F)ccc1O2 (stereo not shown) [ChEMBL3677269] | 0.009 µM | 
15 | CC(=O)[C@]1(O)Cc2c(O)c3c(c(O)c2[C@@H](O[C@H]2C[C@H](N)[C@H](O)[C@H](C)O2)C1)C(=O)c1ccccc1C3=O [Compound 21, idarubicin] |  | inhibition at 10 µM (BACE1 [2]; [3]): 18.1%
16 | CN1C(=O)CC2(N=C1N)c1cc(-c3cccnc3F)ccc1Oc1c2cc(-c2ccnc(F)c2)nc1F (stereo not shown) [ChEMBL3639946] | 0.0024 µM | 
17 | O=C(CCc1ccccc1)c1ccccc1OCC(O)CN1CCCCC1 (stereo not shown) [Compound 13] |  | inhibition at 10 µM (BACE1 [2]; [3]): 34.7%
18 | CC1(C)OCC(N)=N[C@](C)(c2cc(NC3COc4cc(Cl)ccc43)ccc2F)C1(F)F (stereo partly shown) [ChEMBL3670919] | 0.32 µM | 
19 | O=C1c2c(O)ccc(O)c2C(=O)c2c(NCCNCCO)ccc(NCCNCCO)c21 [Compound 17, mitoxantrone] |  | inhibition at 10 µM (BACE1 [2]; [3]): 22.6%
20 | NC1=NC2(CO1)c1cc(NC(=O)c3ncc(Br)cn3)ccc1OCC21CC1 (stereo not shown) [ChEMBL3650820] | 0.661 µM | 
21 | O=C1c2ccccc2C(=O)c2c3c(cc(NCCNCCO)c21)N(CCO)CCN3 [Compound 20] |  | inhibition at 10 µM (BACE1 [2]; [3]): 19.5%
22 | O=C(NC(Cc1cnc[nH]1)C(=O)NC(Cc1ccc(O)cc1)C(=O)O)OCc1ccccc1 (stereo not drawn) [NSC333463] (Cbz-His-Tyr-OH; configuration not given here) |  | Average percent inhibition at 10 μM (BACE1 [2]; 10 μM): 13.4%
23 | N#CC(NCCCNC(C#N)c1ccccc1)c1ccccc1 (stereo not shown) [NSC81537] |  | Average percent inhibition at 10 μM (BACE1 [2]; 10 μM): 8.6%

Row | Compound | IC50 (BACE1 [1]) | also measured
24 | O=C(Nc1cc(Br)ccc1N1CCNCC1)c1cccc2ccccc12 [ChEMBL203120] | 1 µM | 
25 | NC1=N[C@](CF)(c2cc(NC(=O)c3cc4ccccc4cn3)ccc2F)[C@H]2C[C@H]2O1 [ChEMBL3688633] | 0.499 µM | 
26 | COc1cc(C(O)C(O)c2cc(CN3CCOCC3)c(O)c(OC)c2)cc(CN2CCOCC2)c1O (stereo not shown) [NSC55229] |  | Average percent inhibition at 10 μM (BACE1 [2]; 10 μM): 12.1%
27 | COc1ccc(C(=O)/C=C/c2cn(CC(O)CN3CCN(C)CC3)c3ccccc23)cc1 (stereo not shown) [Compound 11] |  | inhibition at 10 µM (BACE1 [2]; [3]): 50.3%; IC50 (BACE1 [2]; from the dose-response curve (Figure 8)): 15.4 µM and 15 µM
28 | CC1(c2cccc(NC(=O)c3ncc(Br)cn3)c2)COCC(N)=N1 (stereo not shown) [ChEMBL3653345] | 0.54 µM | 
29 | COC1CCC2(CC1)Cc1ccc(-c3cccc(C#N)c3)cc1C21N=C(N)c2ccccc21 (stereo not shown) [ChEMBL3673221] | 0.006 µM | 
30 | CCN(CC)CCNc1ccc(CO)c2oc3ccccc3c(=O)c12 [Compound 18] |  | inhibition at 10 µM (BACE1 [2]; [3]): 20.6%
31 | O=C(C[n+]1ccccc1)Nc1cccc(C(=O)Nc2ccc(Cl)cc2)c1 [ChEMBL1163225] | 1 µM | 
32 | CC(CCc1ccc(O)cc1)NCCc1ccc(O)c(O)c1 (stereo not shown) [Compound 16, dobutamine] |  | inhibition at 10 µM (BACE1 [2]; [3]): 29.9%
33 | CC(=O)c1ccccc1OCC(O)CN1CCN(c2cccc(C(F)(F)F)c2)CC1 (stereo not shown) [NSC147843] |  | Average percent inhibition at 10 μM (BACE1 [2]; 10 μM): 9.6%
34 | CC(=O)Nc1ccc(N2C(=O)CC(NCc3ccc(Cl)cc3Cl)C2=O)cc1 (stereo not shown) [Compound 14] |  | inhibition at 10 µM (BACE1 [2]; [3]): 31.3%
35 | CCc1ccc2c(c1)C1(N=C(N)N(C)O1)[C@]1(CC[C@H](OC)CC1)C2 (stereo partly shown) [ChEMBL3656204] | 0.521 µM | 
36 | O=C1c2ccccc2C(=O)c2c(NCCNCCO)ccc(NCCNCCO)c21 [NSC196473] |  | inhibition at 10 µM (BACE1 [2]; read-out: Average percent inhibition at 10 μM): 12.4%
37 | NC1=N[C@@]2(CCOC1)c1cc(-c3cccnc3F)ccc1Oc1cnc(-c3ccc(F)c(F)c3)cc12 [ChEMBL2152912] | 0.002 µM | 
38 | Cc1cc(=O)oc2cc(OCC(O)CN3CCN(c4ccc(F)cc4)CC3)ccc12 (stereo not shown) [Compound 12] |  | inhibition at 10 µM (BACE1 [2]; [3]): 33.5%
39 | [C-]#[N+]c1ccc(C(=O)Nc2ccc(F)c([C@]34COC[C@@]3(F)CSC(N)=N4)c2)nc1 [ChEMBL3672943] | 0.0066 µM | 
40 | NC(Cc1ccccc1)C(=O)NCC(=O)NC(Cc1ccccc1)C(=O)NCC(=O)O (stereo not shown) [Compound 15] (H-FGFG-OH; configuration not given here) |  | inhibition at 10 µM (BACE1 [2]; [3]): 30.7%
41 | CC#CCOc1cnc(C(=O)Nc2ccc(Cl)c(C3(C(F)F)N=C(N)OC4CC43)c2)cn1 (stereo not shown) [Compound 4] | 0.0039 µM | 
42 | Cc1cc(C2(c3cccc(-c4cncnc4)c3)N=C(N)N(C)C2=O)ccn1 (stereo not shown) [ChEMBL598258] | 0.08 µM | 
43 | O=C1c2ccccc2C(=O)c2c(NCCCNCCO)ccc(NCCCNCCO)c21 [NSC278467] |  | Average percent inhibition at 10 μM (BACE1 [2]; 10 μM): 17.0%
44 | CCc1cn2c3c(cc(C(=O)N[C@@H](Cc4ccccc4)[C@H](O)CNC4CC4)cc13)N(CC)S(=O)(=O)CC2 [ChEMBL533064] | 0.02 µM | 
45 | CC1=NC2(CC(C3CCOC(C)(C)C3)Oc3ccc(-c4cccc(Cl)c4)cc32)N=C1N (stereo not shown) [ChEMBL3653708] | 0.005 µM | 

From paper PMC7226079, “Combining Virtual Screening Protocol and In Vitro Evaluation towards the Discovery of BACE1 Inhibitors” (Biomolecules, 2020)
